Biological target: T1, recombinant IL4I1 (Homo sapiens, UniProt Q96RQ9)
T1 construct: purchased R&D Systems 5684-AO-020
T1 sequence (Q96RQ9 22-567): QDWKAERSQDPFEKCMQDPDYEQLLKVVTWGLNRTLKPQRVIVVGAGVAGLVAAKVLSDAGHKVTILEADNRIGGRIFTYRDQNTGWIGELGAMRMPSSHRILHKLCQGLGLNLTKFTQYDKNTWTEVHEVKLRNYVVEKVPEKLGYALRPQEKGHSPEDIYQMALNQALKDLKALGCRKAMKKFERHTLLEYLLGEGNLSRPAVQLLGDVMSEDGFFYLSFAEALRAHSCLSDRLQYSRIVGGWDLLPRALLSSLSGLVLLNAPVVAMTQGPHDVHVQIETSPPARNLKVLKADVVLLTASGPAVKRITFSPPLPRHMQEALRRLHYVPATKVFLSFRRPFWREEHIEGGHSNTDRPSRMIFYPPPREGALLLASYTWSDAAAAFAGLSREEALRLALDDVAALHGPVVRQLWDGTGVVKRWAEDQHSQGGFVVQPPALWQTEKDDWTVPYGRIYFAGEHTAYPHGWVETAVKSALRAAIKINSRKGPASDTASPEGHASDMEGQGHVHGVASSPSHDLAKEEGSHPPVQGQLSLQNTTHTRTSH
Assay: IL4I1 Enzymatic Assay (Amplex Red/HRP coupled H2O2 detection)
Assay type: biochemical
Details: 240 min; four-hour pre-incubation with compound; 1 nM IL4I1, 1 mM each Phe/Tyr/Trp; ten-point titration; fluorescence readout; read-out: Potency EC50 (nM) (240 min)
Experimental: Interleukin 4 inducible protein 1 (IL4I1) is an L-amino oxidase that catalyzes the oxidation of aromatic residues (Phe, Trp and Tyr): L-amino acid+H2O+O2→2-oxo acid+NH3+H2O2. Equal molar of H2O2 and the corresponding alpha-ketoacid are produced when IL4I1 and substrate are added. In this assay, the hydrogen peroxide generated by IL4I1 is then detected through a coupled reaction with Amplex Red (10-acetyl-3,7-dihydroxyphenoxazine) and […] (HRP) to produce Resorufin product that could be detected in the form of fluorescence signals. The assessment of the inhibitory effect of small molecules (EC50) on IL4I1 is measured by the effectiveness of the compounds to inhibit the production of H2O2.
Using this assay, the potency (EC50) of each compound was determined from a ten-point (1:3 serial dilution) titration curve using the following outlined procedure. To each well of a black flat-bottom Greiner (Cat #781076) 384 well-plate, 25 nL of compound (0.1% DMSO in final assay volume of 25 μL) was dispensed, followed by the addition of 12.5 μL of 1x assay buffer (50 mM Hepes 7.0 and 0.005% Tween20 (Sigma, Cat #P8341; low peroxide grade)) containing 2 nM of recombinant IL4I1 (R&D Systems, Cat #5684-AO-020). Plates were placed in an ambient temperature humidified chamber for a four-hour pre-incubation with compound. Subsequently, each reaction was initiated by the addition of 12.5 μL 1x assay buffer containing 2 mM of each aromatic amino acids (Phe/Tyr/Trp), 0.1 mM Amplex Red and 2 U/mL of HRP. The final reaction in each well of 25 μL consists of 1 nM of IL411, 1 mM of each residues (Phe, Tyr and Trp), 0.05 mM Amplex Red and 1 U/mL of HRP. It should be noted that the concentrations of Amplex Red and HRP used here are in excess such that the conversion of H2O2 to Resorufin product occurs instantaneously and non-rate limiting. Reactions were allowed to proceed for 120 minutes followed by fluorescence readout on a Spectramax with the following set parameters: 544 nm excitation/590 nm emission, 570 nm cutoff (EnVision is an alternative reader). Dose-response curves were generated by plotting percent effect (% product conversion; Y-axis) vs. Log10 compound concentrations (X-axis). EC50 values were calculated using a non-linear regression, four-parameters sigmoidal dose-response model and are shown in Table 16.

| SMILES | EC50 |
| --- | --- |
| O=c1[nH]c2ccccc2n1CCN1CCCCC1 [Example 62, 1-[2-(piperidin-1-yl)ethyl]-1,3-dihydro-2H-benzimidazol-2-one] | 1240 nM |
| CC(C)(C)c1ccnc(Cn2c(=O)[nH]c3ccccc32)c1 [Example 63, 1-[(4-tert-butylpyridin-2-yl)methyl]-1,3-dihydro-2H-benzimidazol-2-one] | 4530 nM |
| CC(=O)NCc1ccc(Cn2c(=O)[nH]c3ccc(Cl)cc32)cc1 [Example 64, N-(4-((6-chloro-2-oxo-2,3-dihydro-1H-benzo[d]imidazol-1-yl)methyl)benzyl)acetamide] | 56 nM |
| O=c1[nH]c2c(F)cccc2n1Cc1ccccc1 [Example 68, 1-benzyl-4-fluoro-1,3-dihydro-2H-benzo[d]imidazol-2-one] | 1390 nM |
| O=c1[nH]c2cc(F)c(F)cc2n1Cc1ccccc1 [Example 69, 1-benzyl-5,6-difluoro-1,3-dihydro-2H-benzo[d]imidazol-2-one] | 2270 nM |
| O=c1n(Cc2ccccc2)c2ccccc2n1C(F)F [Example 78, 1-benzyl-3-(difluoromethyl)-1,3-dihydro-2H-benzo[d]imidazol-2-one] | 443 nM |
| N#CC1(Cc2ncc(Cn3c(=O)[nH]c4ccccc43)cc2Cl)CCC1 [Example 79, 1-((3-chloro-5-((2-oxo-2,3-dihydro-1H-benzo[d]imidazol-1-yl)methyl)pyridin-2-yl)methyl)cyclobutane-1-carbonitrile] | 113 nM |
| COc1ccccc1Cn1c(=O)[nH]c2ccc(C)cc21 [Example 86, 1-(2-methoxybenzyl)-6-methyl-1,3-dihydro-2H-benzo[d]imidazol-2-one] | 74 nM |
| CC(c1ccccc1)n1c(=O)[nH]c2ccccc21 (stereo not drawn) [Example 87, 1-(1-phenylethyl)-1,3-dihydro-2H-benzo[d]imidazol-2-one] | 8900 nM |
| CC(C1CCCCC1)n1c(=O)[nH]c2ccccc21 (stereo not drawn) [Example 88, 1-(1-cyclohexylethyl)-1,3-dihydro-2H-benzo[d]imidazol-2-one] | 10000 nM |
| COc1cccc(Cn2c(=O)n(C)c3cc(Cl)ccc32)c1 [Example 90, 5-chloro-1-(3-methoxybenzyl)-3-methyl-1,3-dihydro-2H-benzo[d]imidazol-2-one] | 227 nM |
| COc1ccccc1Cn1c(=O)[nH]c2cccc(C)c21 [Example 91, 1-(2-methoxybenzyl)-7-methyl-1,3-dihydro-2H-benzo[d]imidazol-2-one] | 1340 nM |
| COc1ccccc1Cn1c(=O)[nH]c2c(C)cccc21 [Example 92, 1-(2-methoxybenzyl)-4-methyl-1,3-dihydro-2H-benzo[d]imidazol-2-one] | 396 nM |
| O=c1[nH]c2c(N3CCCC3)cccc2n1Cc1ccccc1 [Example 93, 1-benzyl-4-(pyrrolidin-1-yl)-1,3-dihydro-2H-benzo[d]imidazol-2-one] | 1340 nM |

Molecules with a lower EC50, results first:

| EC50 | SMILES |
| --- | --- |
| 8 nM | O=c1[nH]c2ccccc2n1C[C@@H]1C[C@H]1c1ccccc1 [Example 61, 1-{[(1R,2R)-2-phenylcyclopropyl]methyl}-1,3-dihydro-2H-benzimidazol-2-one] |
| 24 nM | CC(=O)NCc1ccc(Cn2c(=O)[nH]c3ccc(C)cc32)cc1 [Example 65, N-(4-((6-methyl-2-oxo-2,3-dihydro-1H-benzo[d]imidazol-1-yl)methyl)benzyl)acetamide] |
| 16 nM | CN(C)C(=O)Cc1ccc(Cn2c(=O)[nH]c3ccc(F)cc32)cc1 [Example 66, 2-(4-((6-fluoro-2-oxo-2,3-dihydro-1H-benzo[d]imidazol-1-yl)methyl)phenyl)-N,N-dimethylacetamide] |
| 9 nM | CNC(=O)Cc1ccc(Cn2c(=O)[nH]c3ccc(F)cc32)cc1 [Example 67, 2-(4-((6-fluoro-2-oxo-2,3-dihydro-1H-benzo[d]imidazol-1-yl)methyl)phenyl)-N-methylacetamide] |
| 14 nM | O=c1[nH]c2ccc(F)cc2n1Cc1ccc2c(c1)CCC2 [Example 70, 1-((2,3-dihydro-1H-inden-5-yl)methyl)-6-fluoro-1,3-dihydro-2H-benzo[d]imidazol-2-one] |
| 45 nM | CC(C)Oc1cccc(Cn2c(=O)[nH]c3ccccc32)c1 [Example 71, 1-(3-isopropoxybenzyl)-1,3-dihydro-2H-benzo[d]imidazol-2-one] |
| 6 nM | Cc1cc(C)cc(Cn2c(=O)[nH]c3ccccc32)c1 [Example 72, 1-[(3,5-dimethylphenyl)methyl]-1,3-dihydro-2H-benzimidazol-2-one] |
| 24 nM | CC(=O)N(C)Cc1ccc(Cn2c(=O)[nH]c3ccccc32)cc1 [Example 73, N-methyl-N-(4-((2-oxo-2,3-dihydro-1H-benzo[d]imidazol-1-yl)methyl)benzyl)acetamide] |
| 7 nM | O=C1OCCN1Cc1ccc(Cn2c(=O)[nH]c3ccccc32)cc1 [Example 74, 3-(4-((2-oxo-2,3-dihydro-1H-benzo[d]imidazol-1-yl)methyl)benzyl) oxazolidin-2-one] |
| 16 nM | CN(Cc1ccc(Cn2c(=O)[nH]c3ccccc32)cc1)S(=O)(=O)C1CC1 [Example 75, N-methyl-N-(4-((2-oxo-2,3-dihydro-1H-benzo[d]imidazol-1-yl)methyl)benzyl)cyclopropanesulfonamide] |
| 9 nM | CC(=O)NCc1ccc(Cn2c(=O)n(C(F)F)c3ccccc32)cc1 [Example 76, N-(4-((3-(difluoromethyl)-2-oxo-2,3-dihydro-1H-benzo[d]imidazol-1-yl)methyl)benzyl)acetamide] |
| 6 nM | CS(=O)(=O)NCc1ccc(Cn2c(=O)n(C(F)F)c3ccccc32)cc1 [Example 77, N-(4-((3-(difluoromethyl)-2-oxo-2,3-dihydro-1H-benzo[d]imidazol-1-yl)methyl)benzyl)methanesulfonamide] |
| 27 nM | CN1CCN(c2cccc(Cn3c(=O)[nH]c4ccccc43)c2)CC1 [Example 80, 1-(3-(4-methylpiperazin-1-yl)benzyl)-1,3-dihydro-2H-benzo[d]imidazol-2-one] |
| 48 nM | O=c1[nH]c2ccccc2n1Cc1ccc(Cn2ccnn2)cc1 [Example 82, 1-(4-((1H-1,2,3-triazol-1-yl)methyl)benzyl)-1H-benzo[d]imidazol-2 (3H)-one] |
| 13 nM | C[C@H]1COC(=O)N1Cc1ccc(Cn2c(=O)[nH]c3ccccc32)cc1 [Example 83, (S)-4-methyl-3-(4-((2-oxo-2,3-dihydro-1H-benzo[d]imidazol-1-yl)methyl)benzyl) oxazolidin-2-one] |
| 29 nM | Cn1c(=O)n(Cc2cccc(OC(F)(F)F)c2)c2ccccc21 [Example 89, 1-methyl-3-(3-(trifluoromethoxy)benzyl)-1,3-dihydro-2H-benzo[d]imidazol-2-one] |
| 9 nM | CC(=O)NCc1ccc(Cn2c(=O)[nH]c3ccc(F)cc32)cc1 [Example 94, N-(4-((6-fluoro-2-oxo-2,3-dihydro-1H-benzo[d]imidazol-1-yl)methyl)benzyl)acetamide] |
| 6 nM | CCCS(=O)(=O)NCc1ccc(Cn2c(=O)[nH]c3ccc(F)cc32)cc1 [Example 95, N-(4-((6-fluoro-2-oxo-2,3-dihydro-1H-benzo[d]imidazol-1-yl)methyl)benzyl)propane-1-sulfonamide] |
| 21 nM | COC1(C(=O)NCc2ccc(Cn3c(=O)[nH]c4ccccc43)cc2)CC1 [Example 96, 1-methoxy-N-(4-((2-oxo-2,3-dihydro-1H-benzo[d]imidazol-1-yl)methyl)benzyl)cyclopropane-1-carboxamide] |

Source: US12454525B2, “IL4I1 inhibitors and methods of use” (Merck Sharp & Dohme LLC, priority 2020, dated 2025)
